Source: patent publication US12503448B2, “Antibacterial and antiparasitic quinoxaline-2,3-diamine derivatives” (University College Cardiff Consultants Limited, priority 2019, dated 2025)
Converted amounts (≈) assume the structure as drawn. Where two headings read alike, the source gives them in different places.

Assays:
S. mansoni adult worms = test: Adult worm drug screen (WHO scoring, WormassayGP2); assay type: cell-based, Schistosoma mansoni
Source text: Mice (MF-1 mice, Harlan, UK), infected 7 weeks previously with 180 cercaria, were euthanised with an intraperitoneal injection of phenobarbital/heparin solution. Adult worms were recovered by perfusion of the portal system and subjected to drug screening as previously described in Padalino G, Ferla S, Brancale A, Chalmers I W, Hoffmann K F. Int J Parasitol Drugs Drug Resist. 2018 December; 8(3):559-570; in Whiteland H L, Chakroborty A, Forde-Thomas J E, Crusco A, Cookson A, Hollinshead J, Fenn C A, Bartholomew B, Holdsworth P A, Fisher M, Nash R J, Hoffmann K F. Int J Parasitol Drugs Drug Resist. 2018 December; 8(3):465-474; and in Crusco A, Bordoni C, Chakroborty A, Whatley K C L, Whiteland H, Westwell A D, Hoffmann K F. Eur J Med Chem. 2018 May 25; 152:87-100. The data obtained in this manner is shown in Table 1 in the columns labelled “Adult worm”.
Regarding the quantification of drug treatment on adult worms (e.g. decreased activity, paralysis or sluggishness), two different approaches were used, as described below. Where egg deposition was noticed, eggs were removed and counted using a Sedgewick rafter slide.
Adult worms were scored using the standardized microscopic WHO-TDR scoring system previously described by Ramirez, B., Bickle, Q., Yousif, F., Fakorede, F., Mouries, M.-A., Nwaka, S. in Schistosomes: Challenges in compound screening, Expert Opin Drug Discov. 2007 October; 2(s1): S53-61. This scoring system (0-4) identifies changes in worm movement and is defined according to the following scoring matrix: 0=no movement, 1=no movement with visible gut peristalsis, 2=minimal movement (occasional movement from anterior or posterior end of the worm), 3=slow continuous movement and 4=normal movement.
A digital image processing-based system was also used to assess parasite motility after drug treatment and is a modification of methods previously described by Marcellino C., Gut, J., Lim, K., Singh R., McKerrow, L. and Sakanari, J. WormAssay: a novel computer application for whole-plate motion-based screening of macroscopic parasites. PLoS Negl Trop Dis. 2012 January:6(1):e1494. This allowed for objective verification of the WHO method described above. The data obtained with this quantification method is shown in Table 1 in the columns labelled “Adult worm”.

S. mansoni schistosomula = test: 72 hours schistosomula drug screen; assay type: cell-based, Schistosoma mansoni; conditions: for Selectivity Index Schistosomula: HepG2 CC50 over schistosomula EC50; for EC50: Schistosoma mansoni
Experimental: Biological Screening 72 Hours Schistosomula Drug Screen […] G. Colley, […], Schistosoma mansoni: simplified method for the production of schistosomules., Exp. Parasitol. 35 (1974) 44-51. Newly transformed schistosomula were prepared for 72 hour high throughput screening (HTS) in 384-well black-sided microtiter plates (Perkin Elmer, MA, USA) as described in M. Nur-e-alam, M. Yousaf, […]. Bari, H. A. Ghabbour, […]. Ho, A. J. […], Neoclerodane Diterpenoids from […], Teucrium […]. Nat. […] The data obtained in this manner is shown in Table 1 in the columns labelled “Phenotype”, “Motility” and “Schistosomula average”.

H3K4 methylation = test: Histone extraction and detection of global H3K4 methylation in treated adult worms; assay type: cell-based, Schistosoma mansoni; conditions: sub-lethal concentration 0.0024 μM, male and female adult worms
MRSA USA 300 = test: In vitro antibacterial activity; assay type: cell-based; conditions: Staphylococcus aureus
B. cereus = test: In vitro antibacterial activity; assay type: cell-based; conditions: Bacillus cereus; B. cereus; read-out: MIC90
[1] = system: Haemophilus influenzae 17428; test: Antibacterial MIC (ISO 20776-1); assay type: cell-based; conditions: Haemophilus influenzae 17428, Ampicillin resistance, PBP
Source text: (§1) In vitro Determination of Antibacterial Activity
(§2) Scientific Reports 8 (1), 2018. Bacterial strains of Enterococcus faecalis—ATCC 29212, NCTC 12201, ATCC 51299; Streptococcus pneumoniae—ATCC 49619, 18778, 21394, 21395; Haemophilus influenza—ATCC 49766, 18391, 17428; Staphylococcus aureus—NCTC 12493, ATCC BAA-077, ATCC 700698, 11051; used for testing the compounds, as previously described in “Clinical laboratory testing and in vitro diagnostics test systems—Susceptibility testing of infectious agents and evaluation of performance of antimicrobial susceptibility devices—Part 1: Reference methods for testing the in vitro activity of antimicrobial agentes against bacteria involved in infectious diseases, ISO/FDIS 20776-1:2006(E). All the procedures were carried out in a biosafety containment level 2.

[2] = system: Staphylococcus aureus NCTC 12493; test: Antibacterial MIC (ISO 20776-1); assay type: cell-based; conditions: Staphylococcus aureus, NCTC12493
Source text: as §1, §2

[3] = system: Haemophilus influenzae ATCC 49766; test: Antibacterial MIC (ISO 20776-1); assay type: cell-based; conditions: ATCC49766
Source text: as §1, §2

[4] = system: Streptococcus pneumoniae ATCC 49619; test: Antibacterial MIC (ISO 20776-1); assay type: cell-based; conditions: Streptococcus pneumoniae, ATCC49619
Source text: as §1, §2

[5] = system: Streptococcus pneumoniae 21394; test: Antibacterial MIC (ISO 20776-1); assay type: cell-based; conditions: Streptococcus pneumoniae, 21394
Source text: as §1, §2

[6] = system: Enterococcus faecalis ATCC 29212; test: Antibacterial MIC (ISO 20776-1); assay type: cell-based; conditions: Enterococcus faecalis, ATCC29212
Source text: as §1, §2

[7] = system: Haemophilus influenzae 18391; test: Antibacterial MIC (ISO 20776-1); assay type: cell-based; conditions: Haemophilus influenzae 18391, AMP/COA resistance, PBP/β-lactamase
Source text: as §1, §2

[8] = system: Staphylococcus aureus ATCC 700698; test: Antibacterial MIC (ISO 20776-1); assay type: cell-based; conditions: ATCC700698; Staphylococcus aureus ATCC 700698, Vancomycin resistance, hVISA; read-out: MIC
Source text: as §1, §2

[9] = system: Streptococcus pneumoniae 18778; test: Antibacterial MIC (ISO 20776-1); assay type: cell-based; conditions: Streptococcus pneumoniae, 18778
Source text: as §1, §2

[10] = system: Enterococcus faecalis ATCC 51299; test: Antibacterial MIC (ISO 20776-1); assay type: cell-based; conditions: ATCC51299; Enterococcus faecalis ATCC 51299, Vancomycin resistance, vanB
Source text: as §1, §2

[11] = system: Streptococcus pneumoniae 21395; test: Antibacterial MIC (ISO 20776-1); assay type: cell-based; conditions: Streptococcus pneumoniae, 21395
Source text: as §1, §2

[12] = system: Staphylococcus aureus 11051; test: Antibacterial MIC (ISO 20776-1); assay type: cell-based; conditions: Staphylococcus aureus, 11051
Source text: as §1, §2

[13] = system: Staphylococcus aureus ATCC BAA-977; test: Antibacterial MIC (ISO 20776-1); assay type: cell-based; conditions: Staphylococcus aureus, ATCCBAA977
Source text: as §1, §2

[14] = system: Enterococcus faecalis NCTC 12201; test: Antibacterial MIC (ISO 20776-1); assay type: cell-based; conditions: NCTC12201; Enterococcus faecalis NCTC 12201, Vancomycin resistance, vanA
Source text: as §1, §2

S. epidermidis NTCT11077 = test: In vitro antibacterial activity; assay type: cell-based; conditions: Staphylococcus epidermidis, NTCT11077
S. aureus ATCC 29213 = test: In vitro antibacterial activity; assay type: cell-based; conditions: Staphylococcus aureus, ATCC29213
[15] = system: F. hepatica newly excysted juveniles (NEJs); test: Newly excysted juveniles (NEJs) drug screen; assay type: cell-based, Fasciola hepatica; set-up: scale not given here; conditions: 10 μM, 72 h; higher score indicates lower worm activity
Experimental: Newly Excysted Juveniles (NEJs) Drug Screen
F. hepatica (Italian strain) metacercariae were obtained from Ridgeway Research, Gloucestershire, UK and stored at 4° C. Newly excysted juveniles (NEJs) from metacercariae were produced based on an optimisation introduced to the excystment method published by Dixon et al. and Wilson et al (Dixon, K. E., The physiology of excystment of the metacercaria of Fasciola hepática L. Parasitology, 1966, 56, 431-456.; Wilson, L. R., Good, R. T., Panaccio, M., Wijffels, G. L., Sandeman, R. M., Spithill, T. W, Fasciola hepatica: Characterization and Cloning of the Major Cathepsin B Protease Secreted by Newly Excysted Juvenile Liver Fluke. Experimental Parasitology 1998, 88, 85-94).
After excystment, NEJs were distributed into a 24 well tissue culture plate at a density of 25 parasites per well containing 1 mL of pre-warmed NEJs culture media. Compounds were added to respective wells and NEJ/compound co-cultures were incubated at 37° C. in an atmosphere containing 5% CO2 for 72 hours at a final concentration of 10 μM.
F. hepatica NEJs (25 per well) were incubated with the three compounds at a concentration of 10 μM (in 0.1% DMSO) and cultured for 72 hrs at 37° C. in an atmosphere containing 5% CO2. Control wells (25 NEJs per well) included those containing 0.1% DMSO (solvent) and RMPI (media) as negative controls or 10 μM Triclabendazole (0.1% DMSO, as positive control, labelled “Tbz” (Comp. 3). After 72 hrs, all NEJs were scored for phenotype and motility metrics. For each treatment, an average of both phenotype and motility score was calculated based on the individual parasite scores (across two independent replicates), wherein a higher score indicates lower worm activity. SD is reported on the bar chart.

E. coli ATCC 25922 = test: In vitro antibacterial activity; assay type: cell-based; conditions: Escherichia coli, ATCC25922
[16] = system: M. smegmatis mc^2 15 ATCC 700084; test: In vitro antibacterial activity; assay type: cell-based, Mycobacterium smegmatis; conditions: Mycolicibacterium smegmatis, ATCC700084
MRSA ATCC 33591 = test: In vitro antibacterial activity; assay type: cell-based; conditions: Staphylococcus aureus
[17] = system: Pseudomonas aeruginosa ATCC 27853; test: In vitro antibacterial activity; assay type: cell-based; conditions: Pseudomonas aeruginosa, ATCC27853
MRSA EM RSA = test: In vitro antibacterial activity; assay type: cell-based; conditions: Staphylococcus aureus
Source text: as §1, §2

[18] = schistosomula, 72 hour culture, read-out: EC50 Motility
[19] = schistosomula, 72 hour culture, read-out: EC50 Phenotype

Compound: O=[N+]([O-])c1ccc2nc(Nc3cc(F)cc(C(F)(F)F)c3)c(Nc3cc(F)cc(C(F)(F)F)c3)nc2c1 [Compound 8, N^2, N^3-bis(3-fluoro-5-(trifluoromethyl)phenyl)-6-nitroquinoxaline-2,3-diamine]
- Selectivity Index Adult (S. mansoni adult worms; HepG2 CC50 over adult worm EC50): 1549
- EC50 (S. mansoni adult worms; Schistosoma mansoni, adult worms): 0.0065 µM
- Selectivity Index Schistosomula (S. mansoni schistosomula): 25
- EC50 (S. mansoni schistosomula; [18]): 0.43 µM
- EC50 (S. mansoni schistosomula; [19]): 0.37 µM
- global H3K4 methylation compared to the negative control (DMSO) (H3K4 methylation): significant % decrease

Compound: O=C(Nc1ccc2nc(Nc3ccc(Cl)c(Cl)c3)c(Nc3ccc(Cl)c(Cl)c3)nc2c1)c1ccco1 [Compound 19, N-(2,3-bis((3,4-dichlorophenyl)amino)quinoxalin-6-yl)furan-2-carboxamide]
- MIC90 (MRSA USA 300): 62.5 mg/L (≈ 112 µM)
- MIC90 (B. cereus): < 62.5 mg/L
- MIC [1]: 64 mg/L (≈ 114 µM)
- MIC [2]: 1 mg/L (≈ 1.79 µM)
- MIC [3]: 64 mg/L (≈ 114 µM)
- MIC [4]: 8 mg/L (≈ 14.3 µM)
- MIC [5]: 8 mg/L (≈ 14.3 µM)
- MIC [6]: 4 mg/L (≈ 7.15 µM)
- MIC [7]: 64 mg/L (≈ 114 µM)
- MIC [8]: 8 mg/L (≈ 14.3 µM)
- MIC [9]: 8 mg/L (≈ 14.3 µM)
- MIC [10]: 2 mg/L (≈ 3.58 µM)
- MIC [11]: 8 mg/L (≈ 14.3 µM)
- MIC [12]: 8 mg/L (≈ 14.3 µM)
- MIC [13]: 8 mg/L (≈ 14.3 µM)
- MIC [14]: 0.25 mg/L (≈ 0.447 µM)
- MIC90 (S. epidermidis NTCT11077): 125 mg/L (≈ 224 µM)
- MIC90 (S. aureus ATCC 29213): 31.2 mg/L (≈ 55.9 µM)
- Motility (M) Mean score [15]: 3.36
- Phenotype (P) Mean score [15]: 3.40
- MIC90 (E. coli ATCC 25922): > 125 mg/L
- MIC90 [16]: > 125 mg/L
- Selectivity Index Schistosomula (S. mansoni schistosomula): 8
- EC50 (S. mansoni schistosomula; average of phenotype and motility, read-out: EC50 Schistosomula average): 1.94 µM
- EC50 (S. mansoni schistosomula; [18]): 1.33 µM
- EC50 (S. mansoni schistosomula; [19]): 2.54 µM
- MIC90 (MRSA ATCC 33591): 15.6 mg/L (≈ 27.9 µM)
- MIC90 [17]: > 125 mg/L
- MIC90 (MRSA EM RSA): 62.5 mg/L (≈ 112 µM)
